Laboratory results reported in ChEMBL document CHEMBL3745650, “Anti-inflammatory properties of quebecol and its derivatives” (Bioorg Med Chem Lett, 2016).

How the values were obtained:
[1] = Antiinflammatory activity in PMA-differentiated human U937 cells assessed as inhibition of LPS-stimulated TNF-alpha secretion at 62.5 uM preincubated for 2 hrs followed by LPS-stimulation measured after 24 hrs by ELISA relative to control; assay type: functional; conditions: U-937
U-937 [2] = assay: (§1) Antiinflammatory activity in PMA-differentiated human U937 cells assessed as inhibition of LPS-stimulated TNF-alpha secretion preincubated for 2 hrs followed by LPS-stimulation measured after 24 hrs by ELISA relative to control; assay type: functional
[3] = Antiinflammatory activity in PMA-differentiated human U937 cells assessed as inhibition of LPS-stimulated IL-1beta secretion at 125 uM preincubated for 2 hrs followed by LPS-stimulation measured after 24 hrs by ELISA relative to control; assay type: functional; conditions: U-937
[4] = Antiinflammatory activity in PMA-differentiated human U937 cells assessed as inhibition of LPS-stimulated IL-6 secretion at 250 uM preincubated for 2 hrs followed by LPS-stimulation measured after 24 hrs by ELISA relative to control; assay type: functional; conditions: U-937
[5] = Antiinflammatory activity in PMA-differentiated human U937 cells assessed as inhibition of LPS-stimulated TNF-alpha secretion at 125 uM preincubated for 2 hrs followed by LPS-stimulation measured after 24 hrs by ELISA relative to control; assay type: functional; conditions: U-937
[6] = Antiinflammatory activity in PMA-differentiated human U937 cells assessed as inhibition of LPS-stimulated IL-6 secretion at 500 uM preincubated for 2 hrs followed by LPS-stimulation measured after 24 hrs by ELISA relative to control; assay type: functional; conditions: U-937
[7] = Cytotoxicity against PMA-differentiated human U937 macrophages assessed as reduction in cell viability after 24 hrs by MTT assay; assay type: cell-based; conditions: u-937, 24 h
[8] = Antiinflammatory activity in PMA-differentiated human U937 cells assessed as inhibition of LPS-stimulated IL-1beta secretion at 250 uM preincubated for 2 hrs followed by LPS-stimulation measured after 24 hrs by ELISA relative to control; assay type: functional; conditions: U-937
[9] = Antiinflammatory activity in human U937-3xkB-luc cells assessed as inhibition of LPS-induced NFkappaB activation at 5 uM preincubated for 30 mins followed by LPS-stimulation measured after 6 hrs by luciferase assay relative to control; assay type: functional; conditions: U-937
[10] = Antiinflammatory activity in PMA-differentiated human U937 cells assessed as inhibition of LPS-stimulated IL-6 secretion at 125 uM preincubated for 2 hrs followed by LPS-stimulation measured after 24 hrs by ELISA relative to control; assay type: functional; conditions: U-937
[11] = Antiinflammatory activity in PMA-differentiated human U937 cells assessed as inhibition of LPS-stimulated TNF-alpha secretion at 500 uM preincubated for 2 hrs followed by LPS-stimulation measured after 24 hrs by ELISA relative to control; assay type: functional; conditions: U-937
[12] = Antiinflammatory activity in PMA-differentiated human U937 cells assessed as inhibition of LPS-stimulated IL-1beta secretion at 500 uM preincubated for 2 hrs followed by LPS-stimulation measured after 24 hrs by ELISA relative to control; assay type: functional; conditions: U-937
[13] = Antiinflammatory activity in PMA-differentiated human U937 cells assessed as inhibition of LPS-stimulated TNF-alpha secretion at 250 uM preincubated for 2 hrs followed by LPS-stimulation measured after 24 hrs by ELISA relative to control; assay type: functional; conditions: U-937
[14] = Antiinflammatory activity in human U937-3xkB-luc cells assessed as inhibition of LPS-induced NFkappaB activation at 100 uM preincubated for 30 mins followed by LPS-stimulation measured after 6 hrs by luciferase assay relative to control; assay type: functional; conditions: U-937
[15] = Antiinflammatory activity in PMA-differentiated human U937 cells assessed as inhibition of LPS-stimulated IL-1beta secretion at 62.5 uM preincubated for 2 hrs followed by LPS-stimulation measured after 24 hrs by ELISA relative to control; assay type: functional; conditions: U-937
[16] = Antiinflammatory activity in PMA-differentiated human U937 cells assessed as inhibition of LPS-stimulated IL-8 secretion at 250 uM preincubated for 2 hrs followed by LPS-stimulation measured after 24 hrs by ELISA relative to control; assay type: functional; conditions: U-937
[17] = Antiinflammatory activity in PMA-differentiated human U937 cells assessed as inhibition of LPS-stimulated IL-6 secretion at 62.5 uM preincubated for 2 hrs followed by LPS-stimulation measured after 24 hrs by ELISA relative to control; assay type: functional; conditions: U-937
[18] = Antiinflammatory activity in human U937-3xkB-luc cells assessed as inhibition of LPS-induced NFkappaB activation at 20 uM preincubated for 30 mins followed by LPS-stimulation measured after 6 hrs by luciferase assay relative to control; assay type: functional; conditions: U-937
[19] = Antiinflammatory activity in PMA-differentiated human U937 cells assessed as inhibition of LPS-stimulated IL-8 secretion at 125 uM preincubated for 2 hrs followed by LPS-stimulation measured after 24 hrs by ELISA relative to control; assay type: functional; conditions: U-937
U-937 [20] = assay: (§2) Antiinflammatory activity in PMA-differentiated human U937 cells assessed as inhibition of LPS-stimulated IL-6 secretion preincubated for 2 hrs followed by LPS-stimulation measured after 24 hrs by ELISA relative to control; assay type: functional
[21] = Antiinflammatory activity in PMA-differentiated human U937 cells assessed as inhibition of LPS-stimulated IL-8 secretion at 62.5 uM preincubated for 2 hrs followed by LPS-stimulation measured after 24 hrs by ELISA relative to control; assay type: functional; conditions: U-937
[22] = Antiinflammatory activity in PMA-differentiated human U937 cells assessed as inhibition of LPS-stimulated IL-8 secretion at 500 uM preincubated for 2 hrs followed by LPS-stimulation measured after 24 hrs by ELISA relative to control; assay type: functional; conditions: U-937
[23] = as §1; assay type: functional, U-937
[24] = Antiinflammatory activity in PMA-differentiated human U937 cells assessed as inhibition of LPS-stimulated IL-8 secretion preincubated for 2 hrs followed by LPS-stimulation measured after 24 hrs by ELISA relative to control; assay type: functional, U-937
[25] = as §2; assay type: functional, U-937
[26] = Antiinflammatory activity in human U937-3xkB-luc cells assessed as inhibition of LPS-induced NFkappaB activation preincubated for 30 mins followed by LPS-stimulation measured after 6 hrs by luciferase assay relative to control; assay type: functional, U-937
[27] = Antiinflammatory activity in PMA-differentiated human U937 cells assessed as inhibition of LPS-stimulated IL-1beta secretion preincubated for 2 hrs followed by LPS-stimulation measured after 24 hrs by ELISA relative to control; assay type: functional, U-937

| Compound | inhibition at 62.5 µM [1] [%] | inhibition at 125 µM [3] [%] | inhibition at 250 µM [4] [%] | inhibition at 125 µM [5] [%] | inhibition at 500 µM [6] [%] | Activity [7] [µM] | inhibition at 250 µM [8] [%] | inhibition at 5 µM [9] [%] | inhibition at 125 µM [10] [%] | inhibition at 500 µM [11] [%] | inhibition at 500 µM [12] [%] | inhibition at 250 µM [13] [%] | inhibition at 100 µM [14] [%] | inhibition at 62.5 µM [15] [%] | inhibition at 250 µM [16] [%] | inhibition at 62.5 µM [17] [%] | inhibition at 20 µM [18] [%] | inhibition at 125 µM [19] [%] | inhibition at 62.5 µM [21] [%] | inhibition at 500 µM [22] [%] | also measured |
| --- | --- | --- | --- | --- | --- | --- | --- | --- | --- | --- | --- | --- | --- | --- | --- | --- | --- | --- | --- | --- | --- |
| COc1cc(C(CO)C(c2ccc(O)c(OC)c2)c2ccc(O)c(OC)c2)ccc1O (stereo not drawn) | 0 | 25.1 | 62.6 | 19.8 | 84.3 | 500 | 9.4 | 11.2 | 45.5 | 60 | 0.9 | 17.5 | 43.4 | 1.1 | 0 | 1.1 | 13.5 | 0.2 | 0 | 0.3 | inhibition (U-937 [2]): Dose-dependent effect; inhibition (U-937 [20]): Dose-dependent effect |
| CCOC(=O)C(O)c1ccc(O)c(OC)c1 (stereo not drawn) |  | 4 | 0 | 0 | 0 | > 1000 | 0 | 16.4 | 0 | 0 | 0 | 0 | 0 |  | 0 |  | 6.5 | 0 |  | 0 |  |
| COc1cc(CC(=O)O)ccc1O [HOMOVANILLIC ACID] |  | 5.2 | 0 | 0 | 0 | > 1000 | 5.7 | 24 | 0 | 0 | 3.6 | 0 | 22.9 |  | 0 |  | 16.3 | 0 |  | 0 |  |
| Cc1ccc(S(=O)(=O)/C=C/C#N)cc1 |  |  |  |  |  |  |  |  |  |  |  |  |  |  |  |  |  |  |  |  | inhibition (INH) [23]: 99.5%; inhibition (INH) [24]: 99.1%; inhibition (INH) [25]: 99.2%; inhibition (INH) [26]: 99.3%; inhibition (INH) [27]: 95.9% |
| COc1cc(Cc2ccc(O)c(OC)c2)ccc1O |  | 3 | 62.3 | 7.6 | 95.3 | 500 | 33.4 | 11 | 4.3 | 72.2 | 49.2 | 15 | 43.1 |  | 15 |  | 28.9 | 7.1 |  | 26.9 |  |
| CCOC(=O)C(=C(c1ccc(O)c(OC)c1)c1ccc(O)c(OC)c1)c1ccc(O)c(OC)c1 | 15.9 | 26.2 | 99.9 | 92.3 | 99.9 | 62.5 | 85.2 | 12.8 | 97.2 | 100 | 83.9 | 100 | 79.9 | 0 | 99.7 | 27.3 | 15.9 | 99.5 | 22.7 | 99.9 |  |
| CCOC(=O)Cc1ccc(O)c(OC)c1 |  | 2.7 | 0 | 0.1 | 0 | > 1000 | 5.7 | 13.6 | 0 | 6.9 | 0 | 1.1 | 14.6 |  | 0 |  | 21.8 | 0 |  | 0 |  |
| CCOC(=O)C(c1ccc(O)c(OC)c1)C(c1ccc(O)c(OC)c1)c1ccc(O)c(OC)c1 (stereo not drawn) | 8.5 | 1.2 | 99.8 | 15.7 | 99.9 | 125 | 10.9 | 24 | 89.9 | 100 | 91.4 | 100 | 74.7 | 0 | 95 | 4.8 | 31.2 | 94.9 | 0 | 99.9 |  |
| COc1cc(CCO)ccc1O |  | 24.4 | 0 | 6 | 0 | > 1000 | 17.4 | 0 | 0 | 0 | 11.3 | 5.2 | 8.3 |  | 0 |  | 2.6 | 0 |  | 0 |  |
| COc1cc(C(O)C(=O)O)ccc1O (stereo not drawn) |  | 7.4 | 0 | 0 | 0 | > 1000 | 8 | 0 | 0 | 0 | 7.2 | 4.6 | 16.3 |  | 0 |  | 5.7 | 0 |  | 0 |  |
